Laboratory results taken from US20230286973A1, “PROTEIN SECRETION INHIBITORS” (KEZAR LIFE SCIENCES, priority 2020, published 2023).

Key:
[1] = system: PD1-ss+10aa/Gaussia Luciferase; test: Dox-Induced PD1-ss-Gluc Assay; type: cell-based; details: 24 hr Dox induction; 293FRT/TO cells; read-out: 24 hr Dox Inducible PD1ssGluc 293FRT/TO: Mean IC50
How it was run: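 Doxycycline-induced expression of a PD1-ss+10aa/Gaussia luciferase reporter is measured in stable Flp-In 293 T-REx cells. Compound dilutions containing doxycycline are added one day after plating and incubated at 37 °C, 5% CO2. Values for unassigned stereocentres refer to stereoisomer mixtures.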

[2] = system: IL-2-FL/Gaussia Luciferase; test: Dox Induced IL2-FL-Gluc Assay; type: cell-based; details: for IC50: 24 hr Dox induction, 293FRT/TO cells, read-out: 24 hr Dox Inducible IL2FLGluc 293FRT/TO: Mean IC50; for 24 hr Dox Inducible IL2FLGluc 293FRT/TO: IL2/PD1: ratio of IL2FLGluc IC50 to PD1ssGluc IC50
How it was run: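 Stable Flp-In 293 T-REx line, Tet-regulated IL-2 (aa 1-153)–Gaussia luciferase fusion; hygromycin/blasticidin selected. Plated day -1; compound + doxycycline added next day; 37° C, 5% CO2.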

[3] = Liver Microsome Stability Assay (rat); details: rat liver microsomes, with NADPH, 1.0 uM compound
Description: (§1) Stability of a compound was assessed in the presence of liver microsomes from various sources—mouse, rat, monkey and human liver microsomes. 1.0 uM compound, 0.4% DMSO in 0.1 M Potassium Phosphate with 1.0 mg/mL liver microsomes, were incubated at 37° C. with or without 1 mM NADPH. The samples were quenched at 0, and 30 minutes.

[4] = Liver Microsome Stability Assay (mouse); details: mouse liver microsomes, with NADPH, 1.0 uM compound
Description: as §1

[5] = system: TNFα-FL/Gaussia Luciferase; test: Dox Induced TNFα-FL-Gluc Assay; type: cell-based; details: for IC50: 24 hr Dox induction, 293FRT/TO cells, read-out: 24 hr Dox Inducible TNFaFLGluc 293FRT/TO: Mean IC50; for 24 hr Dox Inducible TNFaFLGluc 293FRT/TO: TNF/PD1: ratio of TNFaFLGluc IC50 to PD1ssGluc IC50
How it was run: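 Cell line: stable Flp-In 293 T-REx, TNFα-FL(1-233)-Gaussia luciferase fusion, T-REx-inducible. Plated day -1; compounds in DMSO/media + doxycycline, 37 °C, 5% CO2. Undefined stereocentres = mixture tested.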

[6] = system: HER3-ss+4aa/Gaussia Luciferase; test: Dox-Induced Her3-ss-Gluc Assay; type: cell-based; details: 24 hr Dox induction; 293FRT/TO cells; read-out: 24 hr Dox Inducible Her3(ss + 4)Gluc 293FRT/TO: Mean IC50
How it was run: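 Flp-In 293 T-REx cells, stable HER3-ss+4aa/Gaussia luciferase insert, hygromycin/blasticidin selected; plated day before; compound in DMSO/media + doxycycline; 37° C., 5% CO2.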

[7] = system: multiple myeloma cell line U266B1; test: U266 Cell Viability Assay; type: cell-based, human; details: Homo sapiens, U-266, 48 h, U266B1 cells, Celltiter-Glo
How it was run: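 Luminescent ATP read-out (CellTiter-Glo) after 48 h compound exposure at 37° C., 5% CO2; cells maintained in RPMI 1640/10% FBS/2 mM glutamine/pen-strep, compounds diluted in DMSO/media.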

[8] = system: multiple myeloma cell line NCI-H929; test: H929 Cell Viability Assay; type: cell-based, human; details: Homo sapiens, NCI-H929, 48 h, NCI-H929 cells, Celltiter-Glo
How it was run: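 Cells in RPMI 1640/10% FBS; compound dilutions in DMSO/media; 48 h, 37° C, 5% CO2; CellTiter-Glo luciferase readout for viability.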

[9] = Liver Microsome Stability Assay (human); details: human liver microsomes, with NADPH, 1.0 uM compound
Description: as §1

[10] = Liver Microsome Stability Assay (monkey); details: monkey liver microsomes, with NADPH, 1.0 uM compound
Description: as §1

IC50 [1]	IC50 [2]	Liver Microsome Stability (Multiple Species): Rat - % Remaining after 30 min w/NADPH [3]	Liver Microsome Stability (Multiple Species): Mouse - % Remaining after 30 min w/NADPH [4]	IC50 [5]	IC50 [6]	EC50 [7]	EC50 [8]	Liver Microsome Stability (Multiple Species): Human - % Remaining after 30 min w/NADPH [9]	Liver Microsome Stability (Multiple Species): Monkey - % Remaining after 30 min w/NADPH [10]	Structure (SMILES)	24 hr Dox Inducible IL2FLGluc 293FRT/TO: IL2/PD1 [2]	24 hr Dox Inducible TNFaFLGluc 293FRT/TO: TNF/PD1 [5]
5.38 µM	> 25 µM	1.43%	6.7%	> 25 µM	> 25 µM	> 25 µM	> 25 µM	0.21%	0.27%	Cc1nc(/C=C/c2csc(NC(=O)c3cccn3Cc3ccncc3)n2)cn1C [Compound B51, (E)-N-(4-(2-(1,2-dimethyl-1H-imidazol-4-yl)vinyl)thiazol-2-yl)-1-(pyridin-4-ylmethyl)-1H-pyrrole-2-carboxamide]	>4.6	>4.65
0.0255 µM	2.1 µM	4.04%	32.1%	4.84 µM	0.735 µM	> 25 µM	15.9 µM	5.82%	10.8%	O=C(Nc1nc(/C=C/c2ncoc2C2CCCCC2)cs1)c1cccn1Cc1ccncc1 [Compound B52, (E)-N-(4-(2-(5-cyclohexyloxazol-4-yl)vinyl)thiazol-2-yl)-1-(pyridin-4-ylmethyl)-1H-pyrrole-2-carboxamide]	82	190
0.00685 µM	5.52 µM	4.57%	4.16%	9.42 µM	2.95 µM	> 23.6 µM	13.9 µM	0.4%	2.69%	O=C(Nc1nc(/C=C/c2cn(C3CCCCC3)cn2)cs1)c1cccn1Cc1ccncc1 [Compound B54, (E)-N-(4-(2-(1-cyclohexyl-1H-imidazol-4-yl)vinyl)thiazol-2-yl)-1-(pyridin-4-ylmethyl)-1H-pyrrole-2-carboxamide]	810	1370
0.52 µM	> 25 µM	0.57%	1.72%	> 25 µM	> 25 µM	> 25 µM	> 25 µM	0.46%	0.27%	COCCn1cnc(/C=C/c2csc(NC(=O)c3cccn3Cc3ccncc3)n2)c1 [Compound B56, (E)-N-(4-(2-(1-(2-methoxyethyl)-1H-imidazol-4-yl)vinyl)thiazol-2-yl)-1-(pyridin-4-ylmethyl)-1H-pyrrole-2-carboxamide]	>48	>48.0

The next lines start with the compound.

Structure (SMILES)	IC50 [1]	IC50 [2]	Liver Microsome Stability (Multiple Species): Rat - % Remaining after 30 min w/NADPH [3]	Liver Microsome Stability (Multiple Species): Mouse - % Remaining after 30 min w/NADPH [4]	IC50 [5]	IC50 [6]	EC50 [7]	EC50 [8]	Liver Microsome Stability (Multiple Species): Human - % Remaining after 30 min w/NADPH [9]	Liver Microsome Stability (Multiple Species): Monkey - % Remaining after 30 min w/NADPH [10]	24 hr Dox Inducible IL2FLGluc 293FRT/TO: IL2/PD1 [2]	24 hr Dox Inducible TNFaFLGluc 293FRT/TO: TNF/PD1 [5]
Cc1ccc(/C=C/c2csc(NC(=O)c3cccn3Cc3ccncc3)n2)nc1F [Compound B48, (E)-N-(4-(2-(6-fluoro-5-methylpyridin-2-yl)vinyl)thiazol-2-yl)-1-(pyridin-4-ylmethyl)-1H-pyrrole-2-carboxamide]	0.0225 µM	0.576 µM	1.44%	1.17%	4.14 µM	0.127 µM	> 25 µM	> 25 µM	8.85%	1.39%	26	184
Cc1ccc(/C=C/c2csc(NC(=O)c3cccn3Cc3ccnc(F)c3)n2)nc1F [Compound B49, (E)-N-(4-(2-(6-fluoro-5-methylpyridin-2-yl)vinyl)thiazol-2-yl)-1-((2-fluoropyridin-4-yl)methyl)-1H-pyrrole-2-carboxamide]	0.0274 µM	1.26 µM	4.13%	12.5%	2.51 µM	0.131 µM	> 19.1 µM	11.2 µM	1.53%	1.51%	46	91.4
O=C(Nc1nc(/C=C/c2cn3ccccc3n2)cs1)c1cccn1Cc1ccncc1 [Compound B50, (E)-N-(4-(2-(imidazo[1,2-a]pyridin-2-yl)vinyl)thiazol-2-yl)-1-(pyridin-4-ylmethyl)-1H-pyrrole-2-carboxamide]	0.339 µM	> 25 µM	0.06%	0.94%	> 25 µM	11.4 µM	> 24.6 µM	18.8 µM	1.21%	0.74%	>74	>73.7
O=C(Nc1nc(/C=C/c2ncoc2C2CCCCC2)cs1)c1cccn1Cc1ccnc(F)c1 [Compound B53, (E)-N-(4-(2-(5-cyclohexyloxazol-4-yl)vinyl)thiazol-2-yl)-1-((2-fluoropyridin-4-yl)methyl)-1H-pyrrole-2-carboxamide]	0.0381 µM	1.67 µM	2.11%	14.5%	3.84 µM	0.878 µM	> 25 µM	11.2 µM	5.98%	1.39%	44	101
O=C(Nc1nc(/C=C/c2cn(C3CCCCC3)cn2)cs1)c1cccn1Cc1ccnc(F)c1 [Compound B55, (E)-N-(4-(2-(1-cyclohexyl-1H-imidazol-4-yl)vinyl)thiazol-2-yl)-1-((2-fluoropyridin-4-yl)methyl)-1H-pyrrole-2-carboxamide]	0.0253 µM	2.01 µM	0.3%	1.7%	6.62 µM	1.17 µM	> 25 µM	> 20.8 µM	0.41%	0.4%	79	262
CC(C)n1cncc1/C=C/c1csc(NC(=O)c2cccn2Cc2ccncc2)n1 [Compound B57, (E)-N-(4-(2-(1-isopropyl-1H-imidazol-5-yl)vinyl)thiazol-2-yl)-1-(pyridin-4-ylmethyl)-1H-pyrrole-2-carboxamide]	2.86 µM	> 25 µM	34.4%	17.3%	16.7 µM	> 25 µM	> 24.2 µM	16.3 µM	17.5%	2.84%	>8.7	5.83
